From article PMC3673537 (Bioorganic & medicinal chemistry, 2011)
Marks after values point to notes of the source that are not given here.

Key:
Tcp = test: Western blot against Tcp; assay type: cell-based, Vibrio cholerae; settings: Supplementary data
HapR = test: Western blot against HapR; assay type: cell-based, Vibrio cholerae; settings: Supplementary data
CqsS [1] = target: T1, CqsS (Vibrio cholerae serotype O1, UniProt Q9KM66); test: Vibrio cholerae agonism bioassay; settings: for % Response at the maximum concentration (50 μM): bioluminescence at 50 μM, with respect to CAI-1 at 100%; for agonist activity (in words): V. cholerae MM920 reporter, up to 50 μM
CqsS [2] = target: T1, CqsS; test: Vibrio cholerae antagonism bioassay; settings: for antagonist activity (in words): V. cholerae MM920 reporter with 1.0 μM CAI-1, up to 512 μM; for Ratio: IC50 (analog)/IC50 (Ph-CAI-1): using the IC50 of Ph-CAI-1 determined on the same day

T1 sequence (Q9KM66 whole entry, looked up): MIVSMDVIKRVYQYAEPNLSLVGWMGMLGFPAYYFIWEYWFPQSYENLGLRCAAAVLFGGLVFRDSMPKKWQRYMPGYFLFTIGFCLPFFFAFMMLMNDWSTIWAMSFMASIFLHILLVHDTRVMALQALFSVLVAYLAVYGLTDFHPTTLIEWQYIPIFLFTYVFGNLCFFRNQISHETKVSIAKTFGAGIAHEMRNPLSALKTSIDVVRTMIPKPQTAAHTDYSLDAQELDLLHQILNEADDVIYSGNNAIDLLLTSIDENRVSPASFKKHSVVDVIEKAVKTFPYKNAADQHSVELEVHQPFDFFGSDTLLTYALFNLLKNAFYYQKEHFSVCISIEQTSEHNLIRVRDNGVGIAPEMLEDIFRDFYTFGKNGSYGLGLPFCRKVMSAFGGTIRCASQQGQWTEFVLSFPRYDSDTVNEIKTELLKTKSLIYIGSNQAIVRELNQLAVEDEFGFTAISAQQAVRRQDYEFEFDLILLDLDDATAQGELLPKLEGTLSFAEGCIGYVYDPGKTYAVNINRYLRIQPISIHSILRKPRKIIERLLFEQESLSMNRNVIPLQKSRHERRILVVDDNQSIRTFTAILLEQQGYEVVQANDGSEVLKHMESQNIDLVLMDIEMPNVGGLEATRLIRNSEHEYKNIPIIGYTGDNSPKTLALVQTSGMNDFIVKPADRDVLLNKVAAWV

CCCCCCCCCC(=O)[C@@H](O)CC [Compound 1, (S)-3-hydroxytridecan-4-one]
expression of Tcp (Tcp): significant reduction
expression of HapR (HapR): concomitant expression

CCCCCC(=O)[C@@H](O)CC [Compound A1, (S)-3-Hydroxynonan-4-one]
% Response at the maximum concentration (50 μM) (CqsS [1]): 27 ^e %

CCCCCCC(=O)[C@@H](O)CC [Compound A2, (S)-3-Hydroxydecan-4-one]
agonist activity (in words) (CqsS [1]): essentially inactive
% Response at the maximum concentration (50 μM) (CqsS [1]): 59 ^e %

CCCCCCCCCCCCC(=O)[C@@H](O)CC [Compound A9, (S)-3-Hydroxyhexadecan-4-one]
agonist activity (in words) (CqsS [1]): essentially inactive

CCCCCCCCCC(=O)C(Cl)CC (stereo not shown) [Compound B8, Cl-CAI-1]
agonist activity (in words) (CqsS [1]): inactive

CCCCCCCCCC(=O)C(O)C(C)(C)C (stereo not shown) [Compound C4, 3-Hydroxy-2,2-dimethyltridecan-4-one]
agonist activity (in words) (CqsS [1]): inactive

CCCCCCCCCC(=O)C(O)c1ccc(C)c(C)c1 (stereo not shown) [Compound C9, 1-Hydroxy-1-(3,4-dimethylphenyl)undecan-2-one]
antagonist activity (in words) (CqsS [2]): abolishes activity

CCCCCCCCCC(=O)C(O)c1ccc(CC)cc1 (stereo not shown) [Compound C10, 1-(4-Ethylphenyl)-1-hydroxyundecan-2-one]
IC50 (CqsS [2]): > 500 µM
antagonist activity (in words) (CqsS [2]): inactive
Ratio: IC50 (analog)/IC50 (Ph-CAI-1) (CqsS [2]): >9

CCCCCCCCCC(=O)C(O)c1ccc(CCC)cc1 (stereo not shown) [Compound C11, 1-Hydroxy-1-(4-propylphenyl)-undecan-2-one]
IC50 (CqsS [2]): > 500 µM
antagonist activity (in words) (CqsS [2]): inactive
Ratio: IC50 (analog)/IC50 (Ph-CAI-1) (CqsS [2]): >9

CCCCCCCCCC(=O)C(O)c1ccc(Br)cc1 (stereo not shown) [Compound C28, 1-(4-Bromophenyl)-1-hydroxyundecan-2-one]
antagonist activity (in words) (CqsS [2]): weak antagonist
